{
  "source": "BindingDB's records for doi:10.1016/s0006-291x(02)03054-1",
  "about": "(Pharmacia, 2003)",
  "target": "FMRFamide-like neuropeptides 14 (Ascaris)",
  "data": [
    {"smiles": "Nc1nc2c(ncn2C2OC(COP(=O)(O)OP(=O)(O)OP(=O)(O)O)C(O)C2O)c(=O)[nH]1", "note": "(stereo unspecified) [CAS_6830]", "values": [
      {"measurement": "Ki", "result": 10.5, "unit": "nM"}
    ]}
  ]
}
